# Assay results: patent publication US20230348358A1, “Serotonin Receptor Modulators” (Northeastern University, priority 2020, published 2023)
# Several values for one entry are separate records, joined by “and”; a condition that tells them apart may be missing. Equal values may be shown once. Read-outs that look alike come from different tables or passages of the source.
# What was measured:
# [1] = molecular target: T1, 5HT1A (Homo sapiens, UniProt P08908); assay: Affinity (Ki) at 5HT1A, transfected HEK cells
# T1 sequence (P08908 1-422): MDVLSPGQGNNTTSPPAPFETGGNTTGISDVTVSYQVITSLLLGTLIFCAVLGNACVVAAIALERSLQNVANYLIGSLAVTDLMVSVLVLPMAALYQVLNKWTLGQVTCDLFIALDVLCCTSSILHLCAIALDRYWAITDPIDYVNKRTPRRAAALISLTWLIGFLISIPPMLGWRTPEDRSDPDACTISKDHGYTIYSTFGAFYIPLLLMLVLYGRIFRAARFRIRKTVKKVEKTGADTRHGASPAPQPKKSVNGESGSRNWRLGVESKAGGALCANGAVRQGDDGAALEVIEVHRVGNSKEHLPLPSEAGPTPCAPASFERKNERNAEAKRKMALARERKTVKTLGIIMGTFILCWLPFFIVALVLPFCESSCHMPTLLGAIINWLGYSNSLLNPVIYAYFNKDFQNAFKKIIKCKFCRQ
# [2] = molecular target: T2, 5HT7 (Homo sapiens, UniProt P34969); assay: Affinity (Ki) at 5HT7, HEK293 cells stably expressing 5HT7
# [3] = system: C57BL/6J mice; assay: DOI-elicited head-twitch response (HTR); format: in vivo, mouse; conditions: mouse, in vivo
# Description: The 5-HT2A receptor is a predominant 5-HT receptor in the cortex, and serves important excitation modulation functions on glutamate pyramidal and GABA neurons.
# [4] = system: mice (C57BL/6J, FVB, C58/J); assay: Locomotor behavior, compound on its own; format: in vivo, mouse; conditions: for Locomotor behavior: compound on its own or in the DOI assay
# [5] = system: BL/6J mice; assay: Serotonin syndrome-like behavior observation; format: in vivo, mouse; conditions: mouse, in vivo
# [6] = molecular target: T3, 5HT2A receptors (Homo sapiens, UniProt P28223); assay: biochemical; format: binding
# T3 construct: host or cells: HEK293, transient
# [7] = molecular target: T3, 5HT2A receptors; assay: 5-HT2A function in HEK cells over-expressing the receptor; format: cell-based
# [8] = molecular target: T2, 5HT7; assay: 5HT7 function, Gs-cAMP signaling (HEK293 cells); format: cell-based; design: ATCC CRL-1573 (cells); conditions: for Function at 5HT7: cAMP signaling
# Description: It is certain that the C(5) substituent impacts function. […] In FIG. 3, results of measured (S)-5-PAT scaffold yields with various function as 5HT7 ligands are compared with AS-19 and clozapine.
# [9] = molecular target: T1, 5HT1A; assay: 5HT1A function, Gαi cAMP signaling (CHO cells); format: cell-based
# [10] = molecular target: T4, 5HT2B receptors (Homo sapiens, UniProt P41595); assay: Affinity at 5HT2B receptors; format: binding
# T4 construct: host or cells: HEK293, transient
# [11] = molecular target: T4, 5HT2B receptors; assay: 5HT2B functional assays; format: cell-based
# [12] = molecular target: T5, 5HT2C receptors (Homo sapiens, UniProt P28335); assay: 5HT2C functional assay; format: cell-based
# T5 construct: host or cells: HEK293, transient
# T5 sequence (P28335 33-458): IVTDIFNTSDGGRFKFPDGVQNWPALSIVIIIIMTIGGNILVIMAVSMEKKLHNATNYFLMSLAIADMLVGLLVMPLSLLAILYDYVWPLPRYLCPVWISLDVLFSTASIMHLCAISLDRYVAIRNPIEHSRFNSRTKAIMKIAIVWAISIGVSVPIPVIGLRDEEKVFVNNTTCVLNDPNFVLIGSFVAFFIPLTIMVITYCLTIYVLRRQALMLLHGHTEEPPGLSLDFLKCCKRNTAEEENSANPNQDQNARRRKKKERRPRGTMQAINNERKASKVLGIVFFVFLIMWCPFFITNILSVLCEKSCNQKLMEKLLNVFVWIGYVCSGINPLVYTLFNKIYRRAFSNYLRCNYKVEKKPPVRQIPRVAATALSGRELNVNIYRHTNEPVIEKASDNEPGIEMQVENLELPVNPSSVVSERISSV
# [13] = system: 50 CNS/peripheral sites; assay: NIMH PDSP / NIDA evaluation at 50 CNS/peripheral sites; format: binding
# [14] = molecular target: T2, 5HT7; design: ATCC CRL-1573 (cells); conditions: cited from earlier work
# [15] = molecular target: T2, 5HT7; design: ATCC CRL-1573 (cells); conditions: reported human receptor data; cited from earlier work
# [16] = read-out: Affinity Ki ± SEM at 5HT7
# [17] = read-out: Affinity Ki ± SEM at 5HT1A
# T3 sequence (P28223 whole entry): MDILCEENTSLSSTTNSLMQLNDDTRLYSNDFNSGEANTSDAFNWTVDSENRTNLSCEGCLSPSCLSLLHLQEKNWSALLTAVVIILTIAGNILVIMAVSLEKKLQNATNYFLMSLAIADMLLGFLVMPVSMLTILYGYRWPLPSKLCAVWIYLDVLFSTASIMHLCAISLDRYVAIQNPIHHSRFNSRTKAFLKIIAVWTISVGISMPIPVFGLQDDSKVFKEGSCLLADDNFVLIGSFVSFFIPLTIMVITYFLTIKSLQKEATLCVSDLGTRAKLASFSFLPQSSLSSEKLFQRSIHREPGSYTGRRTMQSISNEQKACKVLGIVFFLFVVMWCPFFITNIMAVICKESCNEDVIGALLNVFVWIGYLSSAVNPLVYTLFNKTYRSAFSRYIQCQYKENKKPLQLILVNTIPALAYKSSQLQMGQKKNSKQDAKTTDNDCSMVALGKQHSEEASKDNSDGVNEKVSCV
# T2 sequence (P34969 whole entry): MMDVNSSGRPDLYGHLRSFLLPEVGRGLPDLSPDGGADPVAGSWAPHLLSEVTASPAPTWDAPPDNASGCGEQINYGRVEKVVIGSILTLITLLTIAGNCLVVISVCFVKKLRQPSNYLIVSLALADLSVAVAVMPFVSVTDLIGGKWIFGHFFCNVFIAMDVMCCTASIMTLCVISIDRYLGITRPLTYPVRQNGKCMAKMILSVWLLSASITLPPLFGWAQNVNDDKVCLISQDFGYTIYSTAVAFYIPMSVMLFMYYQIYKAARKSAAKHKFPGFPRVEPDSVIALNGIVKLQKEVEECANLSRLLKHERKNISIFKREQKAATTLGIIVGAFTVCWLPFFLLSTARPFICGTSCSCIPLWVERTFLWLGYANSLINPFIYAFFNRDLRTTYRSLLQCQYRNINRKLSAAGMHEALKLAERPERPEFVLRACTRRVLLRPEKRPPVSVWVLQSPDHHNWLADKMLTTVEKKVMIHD
# T4 sequence (P41595 whole entry): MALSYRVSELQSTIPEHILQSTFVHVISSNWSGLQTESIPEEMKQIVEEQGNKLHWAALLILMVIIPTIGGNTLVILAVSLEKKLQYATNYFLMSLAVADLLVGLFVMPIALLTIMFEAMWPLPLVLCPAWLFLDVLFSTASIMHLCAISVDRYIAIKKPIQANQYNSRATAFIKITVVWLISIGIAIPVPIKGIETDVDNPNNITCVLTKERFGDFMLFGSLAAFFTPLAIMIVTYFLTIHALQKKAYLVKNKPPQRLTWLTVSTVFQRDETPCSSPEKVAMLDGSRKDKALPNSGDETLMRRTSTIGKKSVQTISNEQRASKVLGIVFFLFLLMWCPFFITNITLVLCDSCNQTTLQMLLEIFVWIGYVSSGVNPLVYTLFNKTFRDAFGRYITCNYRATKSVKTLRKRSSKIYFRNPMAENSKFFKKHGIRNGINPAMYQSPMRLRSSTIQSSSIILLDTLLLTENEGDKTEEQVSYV
smiles,measurement,setting,value
"Fc1ccccc1-c1cccc2c1CCC(N1CCCC1)C2 (racemic) [(R/S)-5-FPyT, 1-(5-(2-fluorophenyl)-1,2,3,4-tetrahydronaphthalen-2-yl)-pyrrolidine]",Ki,[1],1.3 ± 0.1 nM
same,Ki,[2],51 ± 8 nM
"CCCN(CCC)C1CCc2cccc(O)c2C1 (single isomer, unassigned; (+)) [(+)-DPAT, reference compound]",DOI-elicited HTR,[3],suppressed the DOI HTR
same,Locomotor behavior,[4],severe hypolocomotion
same,Serotonin syndrome,[5],obvious serotonin syndrome
CN(C)[C@@H]1CCc2c(cccc2-c2ccccc2F)C1 [(2R)-5-FPT],Affinity at 5-HT2A receptors,"[6]; human and mouse 5-HT2A receptors, compared with (2S)-5-FPT",substantially higher affinity
same,Function at 5-HT2A receptors,[7],neutral antagonist function
same,DOI-elicited HTR,[3],substantially less efficacious than (2S)-5-FPT
same,5-HT7 agonist potency of (R)-enantiomer less than (S)-isomer,[8],about 11 times
same,EC50,[8],378 nM
same,"EMAX vs AS-19, 5-HT7 Gs-cAMP signaling",[8],29%
same,Function at 5HT7,[8],partial agonism
same,Ki,[2]; Affinity Ki ± SEM at 5HT7,750 nM and ~460 nM
"CCCN(CCC)[C@H]1CCc2c(cccc2-c2ccccc2Cl)C1 [(S)-5-CPPT, (2S)-5-(2′-chlorophenyl)-N,N-dipropyl-1,2,3,4-tetrahydronaphtha-len-2-amine]",Function at 5HT7,[8],Full agonist
same,Ki,[1],0.6 ± 0.2 nM
same,Ki,[2]; [16],5.9 ± 1 nM
"CN(C)[C@H]1CCc2c(cccc2-c2ccccc2Cl)C1.Cl [(S)-5-CPT, (2S)-5-(2-chlorophenyl)-N,N-dimethyl-1,2,3,4-tetrahydronaphthalen-2-amine HCl]",Function at 5HT1A,[9],Partial agonist
same,Ki,[6],~500 nM
same,Ki,[10],11 nM
same,5HT2B functional activity,[11],devoid of 5HT2B activity up to 100 μM
same,Agonist efficacy/potency at 5HT2C receptors,[12],less potency and efficacy
same,Activity at 50 CNS/peripheral sites,[13],without activity at 50 CNS/peripheral sites
same,Function at 5HT7,[8],Partial agonist
same,Ki,[1]; [17],7.5 ± 1.5 nM
same,Ki,[2]; [16],1 ± 0.12 nM
"CN(C)[C@H]1CCc2c(cccc2-c2cccc3ccccc23)C1 [(S)-5-NaT, (2S)—N,N-dimethyl-5,6,7,8-tetrahydro-[1,1′-binaphthalen]-6-amine]",Function at 5HT1A,[9],Partial agonist
same,Function at 5HT7,[8],Partial agonist
same,Ki,[1]; [17],64 ± 12 nM
same,Ki,[2]; [16],5.2 ± 1.1 nM
"CCCN(CCC)[C@H]1CCc2c(cccc2-c2ccccc2)C1.Cl [(S)-5-PPT, (2S)-5-phenyl-N,N-dipropyl-1,2,3,4-tetrahydronaphthalen-2-amine HCl]",Function at 5HT7,[8],Full agonist
same,Ki,[1]; [17],5.9 ± 1.1 nM
same,Ki,[2]; [16],34 ± 3 nM
"CN(C)[C@H]1CCc2c(cccc2-c2ccccc2)C1.Cl [(S)-5-PT, N,N-dimethyl-5-phenyl-1,2,3,4-tetrahydronaphthalen-2-amine HCl]",Function at 5HT1A,[9],Partial agonist
same,Function at 5HT7,[8],Neutral antagonist
same,Ki,[1],22 ± 3 nM
same,Ki,[2]; Affinity Ki ± SEM at 5HT7,9.5 ± 1.5 nM
CN(C)[C@H]1CCc2c(cccc2-c2cccn2C)C1 [(S)-5-PyT],Function at 5HT1A,[9],Partial agonist
same,Function at 5HT1A,[9]; listed as 5-PyT,agonist at 5HT1A/Gαi
same,Function at 5HT1A,[9]; listed as (2S)-5-PyT,agonist
same,Function at 5HT7,[8],Inverse agonist
same,Function at 5HT7,[8]; listed as 5-PyT,inverse agonist at 5HT7/Gαs
same,Function at 5HT7,[8]; listed as (2S)-5-PyT,inverse agonist
same,Ki,[1],24 ± 0.2 nM
same,Ki,[2]; Affinity Ki ± SEM at 5HT7,33 ± 4 nM
"Cc1nn(C)c(C)c1-c1cccc2c1CC[C@H](N(C)C)C2 [(S)-AS-19, (2S)-5-trimethylpyrazolyl-2-dimethyl-aminotetralin, reference compound]",DOI-elicited HTR,[3],suppressed the DOI HTR
same,Locomotor behavior,[4],"neither (—)-DPAT, a 5-HT1A partial agonist, nor AS-19 affected locomotor behavior"
same,Serotonin syndrome,[5],"neither (—)-DPAT, a 5-HT1A partial agonist, nor AS-19 affected locomotor behavior or caused obvious serotonin syndrome"
same,Function at 5HT7,[8],Partial agonist
same,Ki,[1]; [17],240 nM
same,Selectivity for 5HT7 over 5HT1A,[2]; from Ki of Table 1,20 fold
same,Ki,[2]; [16],12 nM
"CCCN(CCC)C1CCc2cccc(O)c2C1 (stereo not drawn) [(—)-DPAT, reference compound]",DOI-elicited HTR,[3],suppressed the DOI HTR
same,Locomotor behavior,[4],"neither (—)-DPAT, a 5-HT1A partial agonist, nor AS-19 affected locomotor behavior"
same,Serotonin syndrome,[5],"neither (—)-DPAT, a 5-HT1A partial agonist, nor AS-19 affected locomotor behavior or caused obvious serotonin syndrome"
"O=C1CC2(CCCC2)CC(=O)N1CCCCN1CCN(c2ncccn2)CC1 [Buspirone, reference compound]",Function at 5HT1A,[9],Partial agonist
same,DOI-elicited HTR,[3],reduces DOI-elicited repetitive behavior
same,Catatonia,"[4]; 3 mg/kg, by itself",causes stupor-like catatonia
same,Locomotor behavior,[4],reduces locomotor behavior
"CCCN(CCC)[C@@H]1CCc2cccc(O)c2C1 [Compound 8-OH-DPAT, (R)-8-hydroxy-2-(n-di-propylamino)tetralin]",Function at 5HT7 (literature),[14],low-potency 5HT7 partial agonist
N#Cc1ccc(CNC(=O)CCCCCN2CCN(c3ccccc3-c3ccccc3)CC2)cc1 [LP-211],Selectivity for 5HT7 over 5HT1A receptors,[15],about 25 X
